Results published in the supplement of paper PMC10307832.

Experiments:
Assay in all cases: relative viability (nuclei count vs DMSO), 5 days (fraction); higher = more cells survive
NCI-H322M = system: NCI-H322M
Procedure, shortened: (§1)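 Lung cancer cell lines in 1536-well plates got either a single drug or a fixed anchor-drug dose together with five library-drug doses (not always all listed) in √10 steps, by pin tool, on the day after seeding. Nuclei were counted after 5 days, and relative viability is the treated-to-vehicle ratio of nuclei counts. Values are medians of duplicate plates.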

NCI-H2170 = system: NCI-H2170
Procedure, shortened: as §1

NCI-H23 = system: NCI-H23
Procedure, shortened: as §1

HCC-44 = system: HCC-44
Procedure, shortened: as §1

NCI-H2347 = system: NCI-H2347
Procedure, shortened: as §1

NCI-H838 = system: NCI-H838
Procedure, shortened: as §1

NCI-H1666 = system: NCI-H1666
Procedure, shortened: as §1

NCI-H1395 = system: NCI-H1395
Procedure, shortened: as §1

201T = system: 201T
Procedure, shortened: as §1

NCI-H2085 = system: NCI-H2085
Procedure, shortened: as §1

NCI-H661 = system: NCI-H661
Procedure, shortened: as §1

HOP-62 = system: HOP-62
Procedure, shortened: as §1

NCI-H1651 = system: NCI-H1651
Procedure, shortened: as §1

NCI-H520 = system: NCI-H520
Procedure, shortened: as §1

NCI-H1355 = system: NCI-H1355
Procedure, shortened: as §1

NCI-H2228 = system: NCI-H2228
Procedure, shortened: as §1

NCI-H647 = system: NCI-H647
Procedure, shortened: as §1

CAL-12T = system: CAL-12T
Procedure, shortened: as §1

LCLC-103H = system: LCLC-103H
Procedure, shortened: as §1

NCI-H1993 = system: NCI-H1993
Procedure, shortened: as §1

COR-L23 = system: COR-L23
Procedure, shortened: as §1

LC-2-ad = system: LC-2-ad
Procedure, shortened: as §1

O=C(O)CCCCC(CCSCc1ccccc1)SCc1ccccc1 (stereo not given) [CPI-613] + CC(=O)Nc1cccc(-n2c(=O)n(C3CC3)c(=O)c3c(Nc4ccc(I)cc4F)n(C)c(=O)c(C)c32)c1 [Trametinib] (partner 0.02 µM)
relative viability (NCI-H322M; first compound 5 µM): 0.427
relative viability (NCI-H322M; first compound 15.81 µM): 0.485
relative viability (NCI-H322M; first compound 50 µM): 0.454
relative viability (NCI-H322M; first compound 158.11 µM): 0.516
relative viability (NCI-H322M; first compound 500 µM): 0.514
relative viability (NCI-H2170; first compound 5 µM): 0.95
relative viability (NCI-H2170; first compound 15.81 µM): 0.968
relative viability (NCI-H2170; first compound 50 µM): 0.892
relative viability (NCI-H2170; first compound 158.11 µM): 0.686
relative viability (NCI-H2170; first compound 500 µM): 0.546
relative viability (NCI-H23; first compound 5 µM): 0.394
relative viability (NCI-H23; first compound 15.81 µM): 0.25
relative viability (NCI-H23; first compound 50 µM): 0.393
relative viability (NCI-H23; first compound 158.11 µM): 0.11
relative viability (NCI-H23; first compound 500 µM): 0.0106
relative viability (HCC-44; first compound 5 µM): 1.04
relative viability (HCC-44; first compound 15.81 µM): 1.03
relative viability (HCC-44; first compound 50 µM): 1.08
relative viability (HCC-44; first compound 158.11 µM): 0.649
relative viability (HCC-44; first compound 500 µM): 0.62
relative viability (NCI-H2347; first compound 5 µM): 0.256
relative viability (NCI-H2347; first compound 15.81 µM): 0.232
relative viability (NCI-H2347; first compound 50 µM): 0.259
relative viability (NCI-H2347; first compound 158.11 µM): 0.22
relative viability (NCI-H2347; first compound 500 µM): 0.206
relative viability (NCI-H838; first compound 5 µM): 0.514
relative viability (NCI-H838; first compound 15.81 µM): 0.461
relative viability (NCI-H838; first compound 50 µM): 0.468
relative viability (NCI-H838; first compound 158.11 µM): 0.232
relative viability (NCI-H838; first compound 500 µM): 0.065
relative viability (NCI-H1666; first compound 5 µM): 0.888
relative viability (NCI-H1666; first compound 15.81 µM): 0.821
relative viability (NCI-H1666; first compound 50 µM): 0.796
relative viability (NCI-H1666; first compound 158.11 µM): 0.488
relative viability (NCI-H1666; first compound 500 µM): 0.394
relative viability (NCI-H1395; first compound 5 µM): 0.901
relative viability (NCI-H1395; first compound 15.81 µM): 1.05
relative viability (NCI-H1395; first compound 50 µM): 0.928
relative viability (NCI-H1395; first compound 158.11 µM): 1.04
relative viability (NCI-H1395; first compound 500 µM): 0.917
relative viability (201T; first compound 5 µM): 0.709
relative viability (201T; first compound 15.81 µM): 0.701
relative viability (201T; first compound 50 µM): 0.668
relative viability (201T; first compound 158.11 µM): 0.421
relative viability (201T; first compound 500 µM): 0.408
relative viability (NCI-H2085; first compound 5 µM): 0.664
relative viability (NCI-H2085; first compound 15.81 µM): 0.555
relative viability (NCI-H2085; first compound 50 µM): 0.6
relative viability (NCI-H2085; first compound 158.11 µM): 0.216
relative viability (NCI-H2085; first compound 500 µM): 0.12
relative viability (NCI-H661; first compound 5 µM): 0.528
relative viability (NCI-H661; first compound 15.81 µM): 0.532
relative viability (NCI-H661; first compound 50 µM): 0.541
relative viability (NCI-H661; first compound 158.11 µM): 0.263
relative viability (NCI-H661; first compound 500 µM): 0.133
relative viability (HOP-62; first compound 5 µM): 0.394
relative viability (HOP-62; first compound 15.81 µM): 0.402
relative viability (HOP-62; first compound 50 µM): 0.351
relative viability (HOP-62; first compound 158.11 µM): 0.267
relative viability (HOP-62; first compound 500 µM): 0.129
relative viability (NCI-H1651; first compound 5 µM): 0.771
relative viability (NCI-H1651; first compound 15.81 µM): 0.771
relative viability (NCI-H1651; first compound 50 µM): 0.848
relative viability (NCI-H1651; first compound 158.11 µM): 0.783
relative viability (NCI-H1651; first compound 500 µM): 0.765
relative viability (NCI-H520; first compound 5 µM): 0.691
relative viability (NCI-H520; first compound 15.81 µM): 0.708
relative viability (NCI-H520; first compound 50 µM): 0.552
relative viability (NCI-H520; first compound 158.11 µM): 0.16
relative viability (NCI-H520; first compound 500 µM): 0.0957
relative viability (NCI-H1355; first compound 5 µM): 0.44
relative viability (NCI-H1355; first compound 15.81 µM): 0.409
relative viability (NCI-H1355; first compound 50 µM): 0.42
relative viability (NCI-H1355; first compound 158.11 µM): 0.27
relative viability (NCI-H1355; first compound 500 µM): 0.112
relative viability (NCI-H2228; first compound 5 µM): 0.549
relative viability (NCI-H2228; first compound 15.81 µM): 0.393
relative viability (NCI-H2228; first compound 50 µM): 0.343
relative viability (NCI-H2228; first compound 158.11 µM): 0.452
relative viability (NCI-H2228; first compound 500 µM): 0.052
relative viability (NCI-H647; first compound 5 µM): 0.378
relative viability (NCI-H647; first compound 15.81 µM): 0.388
relative viability (NCI-H647; first compound 50 µM): 0.38
relative viability (NCI-H647; first compound 158.11 µM): 0.0824
relative viability (NCI-H647; first compound 500 µM): 0.0504
relative viability (CAL-12T; first compound 5 µM): 0.286
relative viability (CAL-12T; first compound 15.81 µM): 0.309
relative viability (CAL-12T; first compound 50 µM): 0.325
relative viability (CAL-12T; first compound 158.11 µM): 0.0954
relative viability (CAL-12T; first compound 500 µM): 0.038
relative viability (LCLC-103H; first compound 5 µM): 0.67
relative viability (LCLC-103H; first compound 15.81 µM): 0.662
relative viability (LCLC-103H; first compound 50 µM): 0.727
relative viability (LCLC-103H; first compound 158.11 µM): 0.422
relative viability (LCLC-103H; first compound 500 µM): 0.372
relative viability (NCI-H1993; first compound 5 µM): 0.466
relative viability (NCI-H1993; first compound 15.81 µM): 0.456
relative viability (NCI-H1993; first compound 50 µM): 0.528
relative viability (NCI-H1993; first compound 158.11 µM): 0.51
relative viability (NCI-H1993; first compound 500 µM): 0.291
relative viability (COR-L23; first compound 5 µM): 0.651
relative viability (COR-L23; first compound 15.81 µM): 0.524
relative viability (COR-L23; first compound 50 µM): 0.63
relative viability (COR-L23; first compound 158.11 µM): 0.198
relative viability (COR-L23; first compound 500 µM): 0.0522
relative viability (LC-2-ad; first compound 5 µM): 0.857
relative viability (LC-2-ad; first compound 15.81 µM): 0.899
relative viability (LC-2-ad; first compound 50 µM): 0.911
relative viability (LC-2-ad; first compound 158.11 µM): 0.695
relative viability (LC-2-ad; first compound 500 µM): 0.0212
